From article PMC9936582, “Sulfamate Acetamides as Self-Immolative Electrophiles for Covalent Ligand-Directed Release Chemistry” (Journal of the American Chemical Society, 2023)
Entries after “also recorded” stand apart in the source; their conditions may differ.

Experiments:
[1] = system: IgM+/CD5+ cells; assay: TCL1 adoptive transfer mouse model for CLL; type: in vivo; details: after 2 weeks of treatment, vs untreated mice
Method: (§1) We tested compound 3c in the TCL1 adoptive transfer mouse model for CLL.[42] In this experiment, immune-competent healthy mice received an adoptive transfer of 4 × 10^7 TCL1 splenocytes obtained from full leukemic TCL1 transgenic mice by intravenous injection (Figure 4D). IgM+/CD5+ cells were monitored weekly, and treatment (or mock treatment) was started 4 weeks after transplantation when CD5+ were > 30% in the blood. The mice received a solution containing sulfamate 3c (0.16 mg/mL in 1% cyclodextrin water) ad libitum in the drinking water. […] Moreover, spleens were isolated from the mice after 2 weeks of treatment and quantified.
TCL1 mice for this model were generated as previously described.[42] For this experiment, TCL1 mice approximately 12 months of age with a malignant cell population higher than 60% in the PB were sacrificed. Their spleens were excised, and 4 × 10^7 cells resuspended in PBS^–/– were injected into the tail vein of 6 week old recipient mice. Progression of the disease was followed in the PB by using flow cytometry for the +IgM/+CD5 population. Mice with >30% IgM+/CD5+ cells were considered to be diseased and were used for further analysis.
Isolated cells were stained using specific antibodies (IgM-PE, CD5-APC, BioLegend) in staining buffer (0.5% bovine serum albumin in phosphate-buffered saline) for 30 min in 4 °C in dark then washed twice. […]

[2] = biological target: T1, BTK (Mus musculus, UniProt P35991); assay: BTK engagement in treated mice spleens; type: in vivo; details: spleen lysates, ibrutinib alkyne analogue, TAMRA-azide
T1 construct: the dissected spleens were extracted with RIPA buffer and incubated with an ibrutinib alkyne analogue; from tissue; host or cells: spleen of mice with adoptively transferred TCL1 leukemic splenocytes
T1 sequence (P35991 whole entry): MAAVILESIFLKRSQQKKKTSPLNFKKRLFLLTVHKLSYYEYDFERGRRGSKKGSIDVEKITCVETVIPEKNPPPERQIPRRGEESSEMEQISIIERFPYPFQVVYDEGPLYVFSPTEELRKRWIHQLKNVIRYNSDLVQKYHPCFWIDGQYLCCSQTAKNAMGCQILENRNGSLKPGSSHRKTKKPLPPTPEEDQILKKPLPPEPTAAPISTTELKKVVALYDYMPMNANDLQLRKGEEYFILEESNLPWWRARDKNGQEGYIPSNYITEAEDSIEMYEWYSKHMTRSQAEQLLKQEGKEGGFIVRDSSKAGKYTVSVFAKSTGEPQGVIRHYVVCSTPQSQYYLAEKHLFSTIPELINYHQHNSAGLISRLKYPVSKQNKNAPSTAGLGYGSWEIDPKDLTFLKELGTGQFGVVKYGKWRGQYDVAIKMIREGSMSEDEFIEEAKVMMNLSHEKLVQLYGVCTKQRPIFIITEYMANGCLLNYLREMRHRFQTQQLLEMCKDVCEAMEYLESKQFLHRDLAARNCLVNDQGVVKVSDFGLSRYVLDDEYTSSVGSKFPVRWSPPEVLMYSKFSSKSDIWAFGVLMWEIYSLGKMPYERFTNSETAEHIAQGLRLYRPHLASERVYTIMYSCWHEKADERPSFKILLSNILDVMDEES
Method: as §1
Pellets of harvested spleens were lysed using RIPA buffer (Sigma, R0278) and clarified at 21,000g for 15 min at 4 °C, and protein concentration was determined using BCA protein assay (Thermo Scientific, 23225). Lysates were diluted to 2 mg/mL, 50 μL per sample, and incubated for 1 h in room temperature with 1 μM probe 4 to label BTK. Lysates were then clicked to TAMRA-azide and imaged using ChemiDoc MP (546 nm) as described in the in-gel fluorescence protocol.

[3] = system: Mino cells; assay: isoDTB ABPP in Mino cells; type: cell-based, human; details: for isoDTB-ABPP H/L Ratio: mino cells, 1 µM compound, 2h
[4] = Metabolic stability in human liver microsomes; details: 5 min incubation
[5] = biological target: BTK (Homo sapiens, UniProt Q06187); assay: BTK activity (autophosphorylation) in Mino cells, Western blot; type: cell-based; set-up: endogenous in cells; host or cells: Mino cells; details: anti-IgM activation, Western blot normalized to β-actin
Sequence of BTK (Homo sapiens, UniProt Q06187) (Q06187 whole entry): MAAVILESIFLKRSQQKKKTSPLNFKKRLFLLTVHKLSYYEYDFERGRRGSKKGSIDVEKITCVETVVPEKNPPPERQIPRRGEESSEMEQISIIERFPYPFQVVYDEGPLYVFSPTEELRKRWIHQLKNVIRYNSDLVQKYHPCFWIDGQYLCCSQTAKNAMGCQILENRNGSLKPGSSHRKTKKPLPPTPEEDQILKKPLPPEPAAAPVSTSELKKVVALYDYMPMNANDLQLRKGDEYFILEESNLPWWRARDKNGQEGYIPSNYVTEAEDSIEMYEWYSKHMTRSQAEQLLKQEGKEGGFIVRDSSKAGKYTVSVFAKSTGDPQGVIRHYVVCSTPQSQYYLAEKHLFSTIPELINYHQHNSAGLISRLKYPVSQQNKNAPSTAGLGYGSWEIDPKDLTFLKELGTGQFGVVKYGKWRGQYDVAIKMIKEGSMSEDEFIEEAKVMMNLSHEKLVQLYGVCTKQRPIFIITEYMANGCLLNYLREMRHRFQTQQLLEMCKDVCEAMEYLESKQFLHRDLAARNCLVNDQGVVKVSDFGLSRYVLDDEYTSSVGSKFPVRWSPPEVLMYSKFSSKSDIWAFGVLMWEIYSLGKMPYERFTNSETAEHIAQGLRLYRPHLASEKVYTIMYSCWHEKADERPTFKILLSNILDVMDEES
Method: To assess the cellular efficacy of these compounds, we followed the inhibition of BTK autophosphorylation in Mino cells. After 1 h of pre-incubation with the inhibitors and B-cell activation with an anti-IgM antibody, BTK autophosphorylation was followed by Western blot.
The cell pellets were subjected to immunoblotting, and Western blots were performed for p-BTK, BTK, and β-actin.
Cell pellets were washed with ice-cold PBS and lysed using RIPA buffer (Sigma, R0278). […] Samples containing 50 μg total protein were prepared with 4× LDS sample buffer (NuPAGE, Thermo Scientific, NP0007) and 20 mM DTT, which were then resolved on a 4–20% Bis–Tris gel (GeneScript SurePAGE, M00657). […] An EZ-ECL Kit (Biological Industries, 20-500-1000) was used to detect HRP activity.

Row | BTK engagement in vivo (probe labeling of spleen lysate) [2] | compound remaining intact [4] | IC50 [5] [nM] | Structure (SMILES) | spleen size [1] | number of off-targets (H/L ratio > 2) ([3]; Mino cells, 1 μM, 2 h) | isoDTB-ABPP H/L Ratio ([3]; P27708_C379) | isoDTB-ABPP H/L Ratio ([3]; P48643_C377)
1 | do not show probe labeling | over 30% | 3.6 | CNS(=O)(=O)OCC(=O)N1CCC[C@@H](n2nc(-c3ccc(Oc4ccccc4)cc3)c3c(N)ncnc32)C1 [3c] | decreased spleen size; also recorded: visually smaller | 10 | 5.926 | 5.696
2 |  |  | 164 | Nc1ncnc2c1c(-c1ccc(Oc3ccccc3)cc1)nn2[C@@H]1CCCN(C(=O)COS(=O)(=O)NCc2ccccc2)C1 [3d] |  |  |  | 
